In patent US20100267561A1, “HERBICIDAL PYRIDAZINONE DERIVATIVES” (priority 2007, published 2010):

Legend:
Type in all cases: in vivo
corn (Zea mays) = test: Test A pre-/postemergence plant response
Outline: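 Greenhouse pot test: loam–sand soil; pre- and postemergence sprays applied same day; post plants 2–10 cm, 1–2 leaves. Readout ~10 d, visual % injury vs untreated (0 = none, 100 = complete control).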

[1] = system: Italian ryegrass (Lolium multiflorum); test: Test C pre-/postemergence plant response; conditions: Preemergence
Excerpt: (§1) Seeds of plant species selected from annual bluegrass (Poa annua), blackgrass (Alopecurus myosuroides), canola (Brassica rapa), downy bromegrass (Bromus tectorum), green foxtail (Setaria viridis), Italian ryegrass (Lolium multiflorum), canarygrass (Phalaris minor), pigweed (Amaranthus retroflexus), spring barley (Hordeum vulgare), spring wheat (Triticum aestivum), wild mustard (Sinapis arvensis), wild oat (Avena fatua), windgrass (Apera spica-venti), winter barley (Hordeum vulgare), and winter wheat (Triticum aestivum) were planted and treated preemergence with test chemicals formulated in a non-phytotoxic solvent mixture which included a surfactant. At the same time, plants selected from these crop and weed species were treated with postemergence applications of some of the test chemicals formulated in the same manner. Plants ranged in height from 2 to 18 cm (1- to 4-leaf stage) for postemergence treatments.
(§2) Treated plants and controls were maintained in a controlled growth environment for 15 to 25 days after which time all species were compared to controls and visually evaluated. Plant response ratings, summarized in Table C, are based on a scale of 0 to 100 where 0 is no effect and 100 is complete control. A dash (-) response means no test result.

[2] = system: annual bluegrass (Poa annua); test: Test C pre-/postemergence plant response; conditions: Preemergence
Excerpt: as §1, §2

[3] = system: blackgrass (Alopecurus myosuroides); test: Test C pre-/postemergence plant response; conditions: Preemergence
Excerpt: as §1, §2

[4] = system: canarygrass (Phalaris minor); test: Test C pre-/postemergence plant response; conditions: Preemergence
Excerpt: as §1, §2

[5] = system: downy bromegrass (Bromus tectorum); test: Test C pre-/postemergence plant response; conditions: Preemergence
Excerpt: as §1, §2

[6] = system: green foxtail (Setaria viridis); test: Test C pre-/postemergence plant response; conditions: Preemergence
Excerpt: as §1, §2

[7] = system: pigweed (Amaranthus retroflexus); test: Test C pre-/postemergence plant response; conditions: Preemergence
Excerpt: as §1, §2

[8] = system: spring barley (Hordeum vulgare); test: Test C pre-/postemergence plant response; conditions: Preemergence
Excerpt: as §1, §2

[9] = system: spring wheat (Triticum aestivum); test: Test C pre-/postemergence plant response; conditions: Preemergence
Excerpt: as §1, §2

[10] = system: wild mustard (Sinapis arvensis); test: Test C pre-/postemergence plant response; conditions: Preemergence
Excerpt: as §1, §2

wild oat (Avena fatua) = test: Test C pre-/postemergence plant response; conditions: Preemergence
Excerpt: as §1, §2

[11] = system: windgrass (Apera spica-venti); test: Test C pre-/postemergence plant response; conditions: Preemergence
Excerpt: as §1, §2

[12] = system: winter barley (Hordeum vulgare); test: Test C pre-/postemergence plant response; conditions: Preemergence
Excerpt: as §1, §2

[13] = system: winter wheat (Triticum aestivum); test: Test C pre-/postemergence plant response; conditions: Preemergence
Excerpt: as §1, §2

[14] = Postemergence, 31 g ai/ha, 0 to 100 scale, 0 no effect, 100 complete control
[15] = Postemergence, 125 g ai/ha, 0 to 100 scale, 0 no effect, 100 complete control
[16] = Preemergence, 31 g ai/ha, 0 to 100 scale, 0 is no effect, 100 is complete control
[17] = Preemergence, 125 g ai/ha, 0 to 100 scale (0 no effect, 100 complete control)
[18] = 8 g ai/ha, scale 0 to 100 (0 no effect, 100 complete control)
[19] = 16 g ai/ha, scale 0 to 100 (0 no effect, 100 complete control)
[20] = 31 g ai/ha, scale 0 to 100 (0 no effect, 100 complete control)
[21] = 62 g ai/ha, scale 0 to 100, 0 no effect, 100 complete control

SMILES: Cc1cc(-c2ccc(Cl)cc2)nn1-c1c(OS(=O)(=O)c2cccc3ccccc23)cnn(C)c1=O [Compound 47]
- Plant response rating, Corn (corn (Zea mays); [14]): 0
- Plant response rating, Corn (corn (Zea mays); [15]): 10
- Plant response rating, Corn (corn (Zea mays); [16]): 0
- Plant response rating, Corn (corn (Zea mays); [17]): 40
- Plant response rating, Ryegrass, Italian [1, 18]: 0
- Plant response rating, Ryegrass, Italian [1, 19]: 20
- Plant response rating, Ryegrass, Italian [1, 20]: 80
- Plant response rating, Ryegrass, Italian [1, 21]: 100
- Plant response rating, Bluegrass [2, 18]: 0
- Plant response rating, Bluegrass [2, 19]: 20
- Plant response rating, Bluegrass [2, 20]: 50
- Plant response rating, Bluegrass [2, 21]: 50
- Plant response rating, Blackgrass [3, 18]: 0
- Plant response rating, Blackgrass [3, 19]: 0
- Plant response rating, Blackgrass [3, 20]: 90
- Plant response rating, Blackgrass [3, 21]: 100
- Plant response rating, Canarygrass [4, 18]: 0
- Plant response rating, Canarygrass [4, 19]: 0
- Plant response rating, Canarygrass [4, 20]: 50
- Plant response rating, Canarygrass [4, 21]: 90
- Plant response rating, Bromegrass, Downy [5, 18]: 0
- Plant response rating, Bromegrass, Downy [5, 19]: 15
- Plant response rating, Bromegrass, Downy [5, 20]: 35
- Plant response rating, Bromegrass, Downy [5, 21]: 35
- Plant response rating, Foxtail, Green [6, 18]: 0
- Plant response rating, Foxtail, Green [6, 19]: 15
- Plant response rating, Foxtail, Green [6, 20]: 80
- Plant response rating, Foxtail, Green [6, 21]: 100
- Plant response rating, Pigweed [7, 18]: 0
- Plant response rating, Pigweed [7, 19]: 0
- Plant response rating, Pigweed [7, 20]: 0
- Plant response rating, Pigweed [7, 21]: 0
- Plant response rating, Barley, Spring [8, 18]: 10
- Plant response rating, Barley, Spring [8, 19]: 20
- Plant response rating, Barley, Spring [8, 20]: 35
- Plant response rating, Barley, Spring [8, 21]: 75
- Plant response rating, Wheat, Spring [9, 18]: 0
- Plant response rating, Wheat, Spring [9, 19]: 15
- Plant response rating, Wheat, Spring [9, 20]: 25
- Plant response rating, Wheat, Spring [9, 21]: 65
- Plant response rating, Mustard, Wild [10, 18]: 0
- Plant response rating, Mustard, Wild [10, 19]: 0
- Plant response rating, Mustard, Wild [10, 20]: 0
- Plant response rating, Mustard, Wild [10, 21]: 0
- Plant response rating, Oat, Wild (wild oat (Avena fatua); [18]): 0
- Plant response rating, Oat, Wild (wild oat (Avena fatua); [19]): 0
- Plant response rating, Oat, Wild (wild oat (Avena fatua); [20]): 75
- Plant response rating, Oat, Wild (wild oat (Avena fatua); [21]): 80
- Plant response rating, Windgrass [11, 18]: 0
- Plant response rating, Windgrass [11, 19]: 0
- Plant response rating, Windgrass [11, 20]: 30
- Plant response rating, Windgrass [11, 21]: 65
- Plant response rating, Barley, Winter [12, 18]: 0
- Plant response rating, Barley, Winter [12, 19]: 20
- Plant response rating, Barley, Winter [12, 20]: 40
- Plant response rating, Barley, Winter [12, 21]: 40
- Plant response rating, Wheat, Winter [13, 18]: 0
- Plant response rating, Wheat, Winter [13, 19]: 20
- Plant response rating, Wheat, Winter [13, 20]: 35
- Plant response rating, Wheat, Winter [13, 21]: 65

SMILES: Cc1cc(-c2ccc(Cl)cc2)nn1-c1c(OC(=O)c2cccs2)cnn(C)c1=O [Compound 52]
- Plant response rating, Corn (corn (Zea mays); [14]): 30
- Plant response rating, Corn (corn (Zea mays); [15]): 100
- Plant response rating, Corn (corn (Zea mays); [16]): 0
- Plant response rating, Corn (corn (Zea mays); [17]): 70
- Plant response rating, Ryegrass, Italian [1, 18]: 0
- Plant response rating, Ryegrass, Italian [1, 19]: 65
- Plant response rating, Ryegrass, Italian [1, 20]: 90
- Plant response rating, Ryegrass, Italian [1, 21]: 100
- Plant response rating, Bluegrass [2, 18]: 0
- Plant response rating, Bluegrass [2, 19]: 0
- Plant response rating, Bluegrass [2, 20]: 10
- Plant response rating, Bluegrass [2, 21]: 10
- Plant response rating, Blackgrass [3, 18]: 40
- Plant response rating, Blackgrass [3, 19]: 60
- Plant response rating, Blackgrass [3, 20]: 95
- Plant response rating, Blackgrass [3, 21]: 95
- Plant response rating, Canarygrass [4, 18]: 0
- Plant response rating, Canarygrass [4, 19]: 65
- Plant response rating, Canarygrass [4, 20]: 90
- Plant response rating, Canarygrass [4, 21]: 95
- Plant response rating, Bromegrass, Downy [5, 18]: 0
- Plant response rating, Bromegrass, Downy [5, 19]: 0
- Plant response rating, Bromegrass, Downy [5, 20]: 15
- Plant response rating, Bromegrass, Downy [5, 21]: 80
- Plant response rating, Foxtail, Green [6, 18]: 75
- Plant response rating, Foxtail, Green [6, 19]: 100
- Plant response rating, Foxtail, Green [6, 20]: 100
- Plant response rating, Foxtail, Green [6, 21]: 100
- Plant response rating, Pigweed [7, 18]: 0
- Plant response rating, Pigweed [7, 19]: 0
- Plant response rating, Pigweed [7, 20]: 0
- Plant response rating, Pigweed [7, 21]: 0
- Plant response rating, Barley, Spring [8, 18]: 0
- Plant response rating, Barley, Spring [8, 19]: 0
- Plant response rating, Barley, Spring [8, 20]: 40
- Plant response rating, Barley, Spring [8, 21]: 60
- Plant response rating, Wheat, Spring [9, 18]: 0
- Plant response rating, Wheat, Spring [9, 19]: 0
- Plant response rating, Wheat, Spring [9, 20]: 65
- Plant response rating, Wheat, Spring [9, 21]: 90
- Plant response rating, Mustard, Wild [10, 18]: 0
- Plant response rating, Mustard, Wild [10, 19]: 0
- Plant response rating, Mustard, Wild [10, 20]: 0
- Plant response rating, Mustard, Wild [10, 21]: 0
- Plant response rating, Oat, Wild (wild oat (Avena fatua); [18]): 0
- Plant response rating, Oat, Wild (wild oat (Avena fatua); [19]): 40
- Plant response rating, Oat, Wild (wild oat (Avena fatua); [20]): 60
- Plant response rating, Oat, Wild (wild oat (Avena fatua); [21]): 60
- Plant response rating, Windgrass [11, 18]: 0
- Plant response rating, Windgrass [11, 19]: 0
- Plant response rating, Windgrass [11, 20]: 70
- Plant response rating, Windgrass [11, 21]: 70
- Plant response rating, Barley, Winter [12, 18]: 0
- Plant response rating, Barley, Winter [12, 19]: 0
- Plant response rating, Barley, Winter [12, 20]: 0
- Plant response rating, Barley, Winter [12, 21]: 50
- Plant response rating, Wheat, Winter [13, 18]: 0
- Plant response rating, Wheat, Winter [13, 19]: 0
- Plant response rating, Wheat, Winter [13, 20]: 40
- Plant response rating, Wheat, Winter [13, 21]: 65
